Numbered stars: 1 amine (or outer) side, 2 acyl side, 3 side chain; on linkers, the order of the positions; unused ones are H or OH. Square brackets hold non-standard residues; d marks the D form. Peptide text beside a SMILES is read from it. NMeF = CN[C@@H](Cc1ccccc1)C(=O)O; Aad = N[C@@H](CCCC(=O)O)C(=O)O; Oxalyl = O=C(C(=O)[*:2])[*:1]

The target in data set [1] is T1, Substance-K receptor (Homo sapiens, UniProt P21452).
T1 sequence (P21452 whole entry): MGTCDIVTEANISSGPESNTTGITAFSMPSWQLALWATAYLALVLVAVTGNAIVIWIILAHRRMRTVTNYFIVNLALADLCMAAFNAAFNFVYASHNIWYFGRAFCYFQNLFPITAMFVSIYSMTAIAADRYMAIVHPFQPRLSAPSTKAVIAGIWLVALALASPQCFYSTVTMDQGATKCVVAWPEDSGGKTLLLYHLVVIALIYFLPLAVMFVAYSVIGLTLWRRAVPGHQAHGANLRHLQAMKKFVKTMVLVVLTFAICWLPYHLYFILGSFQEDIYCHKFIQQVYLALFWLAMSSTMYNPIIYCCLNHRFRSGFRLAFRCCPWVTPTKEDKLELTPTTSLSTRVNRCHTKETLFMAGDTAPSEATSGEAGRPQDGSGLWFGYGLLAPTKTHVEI
The data set can be described thus: Displacement of [125I]-NKA from NK2 receptor (unknown origin) expressed in CHO cells by scintillation counter. The class given is cell-based. Background: Displacement assays read how much labelled ligand stays bound in the presence of the test substance.

Data set [2] addresses Substance-P receptor (Homo sapiens, UniProt P25103). In words: Displacement of [125I]-BH-SP from NK1 receptor (unknown origin) expressed in CHO cells by scintillation counter. The class given is cell-based.
The target of data set [3] is T2, Neuromedin-K receptor (Homo sapiens, UniProt P29371).
T2 sequence (P29371 whole entry): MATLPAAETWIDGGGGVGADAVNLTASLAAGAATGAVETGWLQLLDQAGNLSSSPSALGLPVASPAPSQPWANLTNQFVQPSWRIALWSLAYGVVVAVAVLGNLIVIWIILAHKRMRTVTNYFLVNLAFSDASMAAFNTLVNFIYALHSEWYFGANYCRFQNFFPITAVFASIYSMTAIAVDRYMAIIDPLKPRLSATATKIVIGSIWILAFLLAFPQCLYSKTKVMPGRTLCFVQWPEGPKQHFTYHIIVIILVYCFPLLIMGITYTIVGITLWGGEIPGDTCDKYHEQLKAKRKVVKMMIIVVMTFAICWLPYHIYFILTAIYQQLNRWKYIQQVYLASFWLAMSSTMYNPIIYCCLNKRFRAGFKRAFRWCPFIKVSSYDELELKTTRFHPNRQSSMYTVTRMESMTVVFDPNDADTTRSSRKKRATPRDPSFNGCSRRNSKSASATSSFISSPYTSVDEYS
In words: Agonist activity at human NK3 receptor expressed in CHO cells assessed as calcium influx relative to 100 nM senktide. In kind it is functional, cell-based.

Data set [4] concerns the target T2, Neuromedin-K receptor. The data set can be described thus: Displacement of ([125I]His3-MePhe7)-NKB from NK3 receptor (unknown origin) expressed in CHO cells by scintillation counter. The class given is cell-based.
Data set [5] concerns the target T3, Neuromedin-K receptor (Homo sapiens) (UniProt P29371).
T3 sequence (whole entry): T2 sequence (P29371 whole entry)
In words: Potency index, ratio of IC50 for […] to IC50 for test compound for binding affinity to NK3 receptor (unknown origin).

For data set [6], the target named is T3, Neuromedin-K receptor (Homo sapiens). The data set can be described thus: Potency index, ratio of EC50 for […] to EC50 for test compound for agonist activity at human NK3 receptor.
Data set [7] can be described thus: Metabolic stability in goat serum by HPLC analysis. The class given is ADME, Capra hircus.
For data set [8], the target named is Neprilysin (NEP 24.11) (Homo sapiens, UniProt P08473). The data set can be described thus: Stability of compound assessed as NEP 24.11 (unknown origin)-mediated drug degradation after 24 hrs by HPLC analysis. Conditions: NEP 24.11 (neprilysin) enzyme. In kind it is ADME.
Neprilysin (NEP 24.11), sequence (P08473 whole entry): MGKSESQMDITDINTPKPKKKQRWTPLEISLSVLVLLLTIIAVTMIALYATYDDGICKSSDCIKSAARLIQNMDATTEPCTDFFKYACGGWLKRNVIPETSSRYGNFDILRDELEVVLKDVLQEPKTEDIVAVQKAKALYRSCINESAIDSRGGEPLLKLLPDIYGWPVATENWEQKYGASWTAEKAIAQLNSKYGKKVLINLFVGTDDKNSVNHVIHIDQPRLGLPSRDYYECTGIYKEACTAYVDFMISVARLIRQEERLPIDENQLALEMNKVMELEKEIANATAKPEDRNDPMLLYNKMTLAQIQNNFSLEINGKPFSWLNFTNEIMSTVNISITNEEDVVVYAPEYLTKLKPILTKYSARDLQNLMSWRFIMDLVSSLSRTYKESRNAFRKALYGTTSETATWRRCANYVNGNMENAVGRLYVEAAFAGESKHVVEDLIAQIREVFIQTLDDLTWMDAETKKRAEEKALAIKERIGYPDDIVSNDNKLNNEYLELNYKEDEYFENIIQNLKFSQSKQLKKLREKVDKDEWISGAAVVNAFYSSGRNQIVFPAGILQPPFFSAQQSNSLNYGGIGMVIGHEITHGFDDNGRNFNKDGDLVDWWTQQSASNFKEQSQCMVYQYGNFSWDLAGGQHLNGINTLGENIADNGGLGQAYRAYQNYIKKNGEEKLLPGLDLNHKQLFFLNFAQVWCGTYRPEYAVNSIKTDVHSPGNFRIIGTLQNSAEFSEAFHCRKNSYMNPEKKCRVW
For data set [9], the target named is T4, Neuromedin-K receptor (Rattus norvegicus, UniProt P16177).
T4 sequence (P16177 whole entry): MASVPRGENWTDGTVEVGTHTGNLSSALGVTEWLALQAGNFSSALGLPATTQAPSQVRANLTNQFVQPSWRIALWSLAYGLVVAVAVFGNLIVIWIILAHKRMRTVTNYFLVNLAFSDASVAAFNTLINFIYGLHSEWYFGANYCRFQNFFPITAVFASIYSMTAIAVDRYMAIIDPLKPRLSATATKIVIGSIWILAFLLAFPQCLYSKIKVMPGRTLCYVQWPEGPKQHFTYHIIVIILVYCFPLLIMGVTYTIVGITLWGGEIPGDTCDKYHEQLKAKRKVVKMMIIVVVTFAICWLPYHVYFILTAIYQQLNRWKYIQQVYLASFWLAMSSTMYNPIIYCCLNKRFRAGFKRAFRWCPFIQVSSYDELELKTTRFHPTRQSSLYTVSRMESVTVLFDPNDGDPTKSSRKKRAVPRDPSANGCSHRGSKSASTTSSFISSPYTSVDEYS
In words: Agonist activity at rat NK3 receptor expressed in CHO cells assessed as calcium influx relative to 100 nM senktide. In kind it is functional, cell-based.

The test system of data set [10] is Serum. In words: Metabolic stability in rat serum by HPLC analysis. The class given is ADME.
Data set [11] relates to Serum. The data set can be described thus: Metabolic stability in cattle serum by HPLC analysis. The class given is ADME, Bos taurus.
Data set [12] is described as follows: Agonist activity at cattle NK3 receptor expressed in CHO cells assessed as calcium influx relative to 100 nM senktide. In kind it is cell-based.
A short description of data set [13]: Agonist activity at goat NK3 receptor expressed in CHO cells assessed as calcium influx relative to 100 nM senktide. In kind it is cell-based. The note with it: Capra hircus.
Data set [14] in a line: Induction of periodic burst of multiple-unit activity volleys in OVX goat assessed as time duration of effect at 200 nmol, iv. The class given is functional, Capra hircus.
The nature of data set [15]: Induction of periodic burst of multiple-unit activity volleys in OVX goat assessed as number of ligand-induced multiple-unit activity volleys at 200 nmol, iv. The class given is functional, Capra hircus.

Substance-P receptor, sequence (P25103 whole entry): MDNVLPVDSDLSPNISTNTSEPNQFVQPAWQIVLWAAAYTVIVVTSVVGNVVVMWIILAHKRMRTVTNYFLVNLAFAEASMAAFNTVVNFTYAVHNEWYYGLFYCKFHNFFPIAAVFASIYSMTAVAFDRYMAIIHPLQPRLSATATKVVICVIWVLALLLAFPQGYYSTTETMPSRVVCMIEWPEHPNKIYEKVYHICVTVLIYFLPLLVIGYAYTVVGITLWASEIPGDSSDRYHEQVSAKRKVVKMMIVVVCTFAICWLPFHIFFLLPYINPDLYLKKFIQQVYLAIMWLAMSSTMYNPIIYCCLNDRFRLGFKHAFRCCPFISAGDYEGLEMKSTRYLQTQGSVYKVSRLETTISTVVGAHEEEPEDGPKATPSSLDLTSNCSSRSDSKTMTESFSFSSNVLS

As usually defined, the IC50 is the concentration needed to halve the response being measured. Lower therefore signals greater potency. By EC50 is commonly meant the concentration at which the effect is half-maximal. In the case of `CSCC[C@H](NC(=O)[C@H](CC(C)C)NC(=O)CNC(=O)[C@H](Cc1ccccc1)N(C)C(=O)[C@H](Cc1ccccc1)NC(=O)[C@@H](CC(=O)O)NC(=O)C(=O)O)C(N)=O`, the IC50 is greater than 10000 nM in data set [1], greater than 10000 nM in data set [2] and 3.5 nM in [4]. Besides, in data set [3], the EC50 was 0.022 nM. The Ratio IC50 in data set [5] came out at 10.
For the molecule `CSCC[C@H](NC(=O)[C@H](CC(C)C)NC(=O)CNC(=O)[C@H](Cc1ccccc1)N(C)C(=O)[C@H](Cc1ccccc1)NC(=O)[C@H](CCC(=O)O)NC(=O)[C@@H](CC(=O)O)NC(C)=O)C(N)=O`, the figures for the IC50 in [1], in data set [2] and in [4] were greater than 10000 nM, greater than 10000 nM and 13 nM, respectively. Besides, the EC50 in [3] came out at 0.012 nM. Moreover, the Ratio EC50 in [6] worked out at 2. The Ratio IC50 in [5] is 3.
Turning to `CSCC[C@H](NC(=O)[C@H](CC(C)C)NC(=O)CNC(=O)[C@H](Cc1ccccc1)N(C)C(=O)[C@H](Cc1ccccc1)NC(=O)[C@H](CCC(=O)O)NC(=O)C(=O)O)C(N)=O`, the Stability result in data set [7], in data set [10] and in data set [11] was “Stable” each time. Further, the metabolised at 24 h in [8] was greater than 70%. Further, the IC50 in data set [1] is greater than 10000 nM; in [2], greater than 10000 nM; in [4] it was 0.43 nM. Further, the EC50 in data set [9] was found to be 0.013 nM; in data set [3] it was 0.0091 nM; in data set [12], 0.169 nM; in data set [13], 0.012 nM. Further, the Ratio EC50 in [6] amounted to 7.
Regarding `CSCC[C@H](NC(=O)[C@H](CC(C)C)NC(=O)CNC(=O)[C@H](Cc1ccccc1)N(C)C(=O)[C@H](Cc1ccccc1)NC(=O)[C@H](CC(=O)O)NC(=O)CCC(=O)O)C(N)=O` [SENKTIDE], the Stability entry in data set [7], in data set [10] and in data set [11] was “Stable” throughout. Moreover, the Time in data set [14] was determined as 47.2 min. Besides, the IC50 in [1] is greater than 10000 nM. The EC50 in [12] was 0.61 nM; in [13], 0.019 nM. For the same molecule, the Activity in data set [15] is given as 2.6.
With `CSCC[C@H](NC(=O)[C@H](CC(C)C)NC(=O)CNC(=O)[C@H](Cc1ccccc1)N(C)C(=O)[C@H](Cc1ccccc1)NC(=O)[C@H](CCC(=O)O)NC(=O)[C@H](CC(=O)O)NC(C)=O)C(N)=O`, the IC50 in [1] is greater than 10000 nM; in data set [2] it was greater than 10000 nM; in data set [4], 7.7 nM. For the same molecule, in data set [3], the EC50 came out at 0.0081 nM. Further, in data set [6], the Ratio EC50 worked out at 3. In addition, the Ratio IC50 in data set [5] turned out to be 5.
Turning to `CSCC[C@H](NC(=O)[C@H](CC(C)C)NC(=O)CNC(=O)[C@H](Cc1ccccc1)N(C)C(=O)[C@H](Cc1ccccc1)NC(=O)[C@@H](CCC(=O)O)NC(=O)C(=O)O)C(N)=O`, the Stability result in [7], in data set [10] and in data set [11] was “Stable” each time. Further, the Time in data set [14] is given as 50.4 min. The IC50 is greater than 10000 nM in data set [1], greater than 10000 nM in data set [2] and 0.51 nM in data set [4]. The EC50 was 0.0099 nM in data set [9], 0.014 nM in data set [3], 0.152 nM in data set [12] and 0.0094 nM in data set [13]. Also, in data set [6], the Ratio EC50 was determined as 7. The Activity in data set [15] is 2.7.
`CSCC[C@H](NC(=O)[C@H](CC(C)C)NC(=O)CNC(=O)[C@H](Cc1ccccc1)N(C)C(=O)[C@H](Cc1ccccc1)NC(=O)[C@H](CC(=O)O)NC(=O)C(=O)O)C(N)=O`: the IC50 is greater than 10000 nM in data set [1], greater than 10000 nM in [2] and 3.6 nM in [4]. In addition, in [3], the EC50 is 0.083 nM. The Ratio IC50 in data set [5] came out at 10.
With `CSCC[C@H](NC(=O)[C@H](CC(C)C)NC(=O)CNC(=O)[C@H](Cc1ccccc1)N(C)C(=O)[C@H](Cc1ccccc1)NC(=O)[C@H](CCCC(=O)O)NC(=O)C(=O)O)C(N)=O` (Oxalyl-[Aad]F[NMeF]GLM-NH2), in data set [8], the metabolised at 24 h was greater than 70%. Besides, the half-inhibitory concentration (IC50) is greater than 10000 nM in data set [1], greater than 10000 nM in data set [2] and 1.4 nM in data set [4]. Further, the EC50 in data set [9] was 0.0072 nM; in data set [3] it was 0.0074 nM; in [12] it was 0.15 nM; in [13], 0.0093 nM.

For the origin of these results see ChEMBL document CHEMBL3734731 (Medchemcomm, 2015).
